Read-outs that look alike come from different tables or passages of the source.
What was measured:
E. coli ATCC 9723H = type: cell-based; conditions: range over 3–9 independent experiments
Method: (§1) Bacterial strains used in this study were: E. coli ATCC 9723H, Pseudomonas aeruginosa ATCC 10148, Staphylococcus aureus ATCC 6538P (penicillin resistant), Streptococcus pyogenes (hospital isolate, strain unknown), Mycobacterium smegmatis MC^2155, N. gonorrhoeae ATCC 700825 (streptomycin resistant), and Salmonella enterica subsp. enterica serovar Typhimurium SL1344 (streptomycin resistant). E. coli, P. aeruginosa, S. aureus, M. smegmatis, and S. enterica were cultured aerobically at 37°C in Mueller Hinton broth (MHB) (Sigma-Aldrich, MO, United States) and on nonselective Mueller Hinton agar (MHA) plates. S. pyogenes was cultured in 5% carbon dioxide at 37°C in MHB supplemented with 5% lysed horse blood (Quad Five, MT, United States) (MHB + 5% HB) and on nonselective MHA plates supplemented with 5% defibrinated sheep blood (Quad Five, MT, United States) (MHA + 5% SB). N. gonorrhoeae was cultured in 5% carbon dioxide at 37°C in gonococcal (GC) chocolate broth medium and on nonselective GC agar plates [GC medium base (BD Difco, MD, United States) supplemented with 1% BBL™ hemoglobin (BD Biosciences, MD, United States) and 1% IsoVitaleX (BD Biosciences, MD, United States)]. Prior to antimicrobial susceptibility assays (as described below), N. gonorrhoeae cultures were subcultured on nonselective GC agar plates (as described above), to ensure bacterial viability. All bacterial stocks were stored in 20% glycerol at –80°C.
(§2) Bacterial suspensions were prepared by transferring bacterial colonies into MHB and resuspending using a vortex mixer to ensure complete suspension of any bacterial aggregates. Turbidity of the colony suspensions was adjusted spectrophotometrically to the required optical densities to achieve a turbidity equivalent to that of a 0.5 McFarland standard (1–2 × 10^8 CFU/mL) followed by dilution in MHB to achieve the standardized microbial inoculum of approximately 5 × 10^5 CFU/mL. Total viable counts (TVC) were routinely performed on all inoculum suspensions to ensure correct bacterial cell densities. The standardized bacterial suspensions were then incubated with two-fold serial dilutions of each peptide (dissolved in 11 μL of ultrapure sterile water; final peptide concentration range of 256 μg/mL–0.5 μg/mL) in Greiner polypropylene round bottom 96-well microtiter plates (Sigma-Aldrich, MO, United States). Each peptide was tested once per experiment, with a range of 3–9 independent experiments performed per peptide. Negative growth/sterility control wells contained bacterial growth media (100 μL) and the peptide solvent (11 μL of ultrapure sterile water). Positive growth control wells contained the standardized number of bacterial cells (100 μL of ∼ 5.0 × 10^5 CFU/mL) and peptide solvent (11 μL of ultrapure sterile water). Plates were incubated at 37°C for 16–24 h and MICs were determined using the unaided eye to identify the lowest concentration of AMP that inhibited visible growth of the tested bacterial species. If the sterility control well was turbid, the test was not considered valid. MBCs were determined by plating the entire content of the wells containing the peptide/bacteria mixture representing the MIC and the entire contents of the preceding wells containing two-fold and four-fold more concentrated AMP dilutions onto nonselective agar plates.

S. enterica SL1344 = type: cell-based, Salmonella enterica subsp. enterica serovar Typhimurium; conditions: range over 3–9 independent experiments
Method: as §1
(§3) Bacterial suspensions were prepared by transferring bacterial colonies into MHB and resuspending using a vortex mixer to ensure complete suspension of any bacterial aggregates. Turbidity of the colony suspensions was adjusted spectrophotometrically to the required optical densities to achieve a turbidity equivalent to that of a 0.5 McFarland standard (1–2 × 10^8 CFU/mL) followed by dilution in MHB to achieve the standardized microbial inoculum of approximately 5 × 10^5 CFU/mL. Total viable counts (TVC) were routinely performed on all inoculum suspensions to ensure correct bacterial cell densities. […] Plates were incubated at 37°C for 16–24 h and MICs were determined using the unaided eye to identify the lowest concentration of AMP that inhibited visible growth of the tested bacterial species. […] MBCs were determined by plating the entire content of the wells containing the peptide/bacteria mixture representing the MIC and the entire contents of the preceding wells containing two-fold and four-fold more concentrated AMP dilutions onto nonselective agar plates.

M. smegmatis MC^2155 = type: cell-based, Mycobacterium smegmatis; conditions: range over 3–9 independent experiments
Method: as §1, §2

P. aeruginosa ATCC 10148 = type: cell-based, Pseudomonas aeruginosa; conditions: range over 3–9 independent experiments
Method: as §1, §2

S. aureus ATCC 6538P = type: cell-based, Staphylococcus aureus; conditions: range over 3–9 independent experiments
Method: as §1, §3

[1] = test system: N. gonorrhoeae ATCC 700825; type: cell-based, Neisseria gonorrhoeae; conditions: 3-h incubation 37°C 5% CO2, TVCs versus positive growth control, all of three to six independent experiments
Method: as §1
The potential antimicrobial activity of the T. pallidum peptides against N. gonorrhoeae was determined using a modified agar dilution method. In this assay, N. gonorrhoeae colonies from GC chocolate agar plates were resuspended in MHB and the turbidity of the suspension was adjusted, as described above, to achieve the standardized microbial inoculum of approximately 5 × 10^5 CFU/mL. A two-fold serial dilution of the peptides (11 μL in sterile ultrapure water) was then prepared in wells 1–10 of a 96-well sterile polypropylene plate to obtain a dilution series corresponding to 10 times the required testing concentrations (2,560, 1,280, 640, 320, 160, 80, 40, 20, 10, 5 μg/mL). The bacterial suspension (100 μL) was dispensed into the wells containing the peptides. A negative growth/sterility control (well 12) contained bacterial growth media (100 μL) and the peptide solvent (11 μL of ultrapure sterile water). A positive growth control (well 11) contained the standardized number of bacterial cells (100 μL of ∼ 5.0 × 10^5 CFU/mL) and peptide solvent (11 μL of ultrapure sterile water). The 96-well plate was then incubated at 37°C in an atmosphere of 5% CO2 for 3 h to allow for peptide binding and antimicrobial activity. After the incubation period, an aliquot (20 μL) from wells 1–12 was removed and spotted onto the surface of a GC chocolate agar plate. N. gonorrhoeae spotted plates and TVC plates were incubated at 37°C in an atmosphere of 5% CO2 for 18–24 h. […] To determine the bactericidal activity of peptides, total viable counts (TVCs) were also prepared on GC chocolate agar plates for the 3 h-incubated peptide/bacteria mixtures. These counts were compared with TVCs from the corresponding positive growth wells to give the percentage of bacteria killed by each of the peptides following the 3-h incubation.

[2] = test system: S. pyogenes Unknown strain; Clinical Isolate; type: cell-based, Streptococcus pyogenes; conditions: range over 3–9 independent experiments
Method: as §1, §2

[3] = broth microdilution in MHB, ~5 × 10^5 CFU/mL, peptide 256–0.5 μg/mL two-fold dilutions, 37°C 16–24 h, visible growth by unaided eye
[4] = wells at MIC, two-fold and four-fold higher plated on nonselective agar, 24 h 37°C

CC[C@H](C)[C@H](NC(=O)[C@H](CCCCN)NC(=O)[C@H](CCC(=O)O)NC(=O)[C@H](CCCCN)NC(=O)[C@H](CO)NC(=O)[C@H](CCCCN)NC(=O)[C@H](CCCNC(=N)N)NC(=O)[C@H](Cc1ccccc1)NC(=O)[C@H](Cc1ccccc1)NC(=O)[C@H](CC(=O)O)NC(=O)CNC(=O)[C@H](CC(C)C)NC(=O)[C@@H](N)CC(C)C)C(=O)NCC(=O)N[C@@H](CCCCN)C(=O)N[C@@H](CCC(=O)O)C(=O)N[C@@H](Cc1ccccc1)C(=O)N[C@@H](CCCCN)C(=O)N[C@@H](CCCNC(=N)N)C(=O)N[C@H](C(=O)N[C@H](C(=O)N[C@@H](CCC(N)=O)C(=O)N[C@@H](CCCNC(=N)N)C(=O)N[C@H](C(=O)N[C@@H](CCCCN)C(=O)N[C@@H](CC(=O)O)C(=O)N[C@@H](Cc1ccccc1)C(=O)N[C@@H](CC(C)C)C(=O)N[C@@H](CCCNC(=N)N)C(=O)N[C@@H](CC(N)=O)C(=O)N[C@@H](CC(C)C)C(=O)N[C@H](C(=O)N1CCC[C@H]1C(=O)N[C@@H](CCCNC(=N)N)C(=O)N[C@H](C(=O)N[C@@H](CCC(=O)O)C(=O)N[C@@H](CO)C(=O)O)[C@@H](C)O)C(C)C)[C@@H](C)CC)C(C)C)[C@@H](C)CC [LL-37]
MIC (E. coli ATCC 9723H; [3]): 1.8 to 7.1 µM
MBC (E. coli ATCC 9723H; [4]): 1.8 to 7.1 µM
MIC (S. enterica SL1344; [3]): 1.8 to 28.5 µM
MBC (S. enterica SL1344; [4]): 1.8 to 28.5 µM
MIC (M. smegmatis MC^2155; [3]): 0.45 to 1.8 µM
MBC (M. smegmatis MC^2155; [4]): 0.45 to 1.8 µM
MIC (P. aeruginosa ATCC 10148; [3]): 3.6 to 14.2 µM
MBC (P. aeruginosa ATCC 10148; [4]): 3.6 to 14.2 µM
MIC (S. aureus ATCC 6538P; penicillin resistant strain, broth microdilution in MHB, ~5 × 10^5 CFU/mL, peptide 256–0.5 μg/mL two-fold dilutions, 37°C 16–24 h, visible growth by unaided eye): 7.1 to 28.5 µM
MBC (S. aureus ATCC 6538P; [4]): 7.1 to 57.0 µM
N. gonorrhoeae killing (%) ([1]; peptide 32 μg/mL): 100%
N. gonorrhoeae killing (%) ([1]; peptide 64 μg/mL): 100%
N. gonorrhoeae killing (%) ([1]; peptide 128 μg/mL): 100%
N. gonorrhoeae killing (%) ([1]; peptide 256 μg/mL): 100%
MIC ([2]; broth microdilution, cultured in MHB + 5% lysed horse blood, 5% carbon dioxide, ~5 × 10^5 CFU/mL, peptide 256–0.5 μg/mL, 37°C 16–24 h, visible growth): 28.5 to 57.0 µM
MBC [2, 4]: 28.5 to 57.0 µM

— PMC9200625, “Identification and Functional Characterization of Peptides With Antimicrobial Activity From the Syphilis Spirochete, Treponema pallidum” (Frontiers in Microbiology, 2022)
